ChEMBL document CHEMBL3826956, “Cholinesterase inhibitory activity of isoquinoline alkaloids from three Cryptocarya species (Lauraceae)” (Bioorg Med Chem, 2016)

Columns and labels:
[1] = target: Acetylcholinesterase (Electrophorus electricus) (UniProt O42275); experiment: Inhibition of electric eel AChE at 100 ug/ml preincubated for 15 mins followed by addition of acetylthiocholine iodide as substrate measured after 30 mins by Ellman's microplate assay
[2] = target: Cholinesterase (Equus caballus) (UniProt P81908); experiment: Inhibition of equine serum BChE at 100 ug/ml preincubated for 15 mins followed by addition of S-butyrylthiocholine chloride as substrate measured after 30 mins by Ellman's microplate assay
Sequence of Cholinesterase (Equus caballus) (P81908 whole entry): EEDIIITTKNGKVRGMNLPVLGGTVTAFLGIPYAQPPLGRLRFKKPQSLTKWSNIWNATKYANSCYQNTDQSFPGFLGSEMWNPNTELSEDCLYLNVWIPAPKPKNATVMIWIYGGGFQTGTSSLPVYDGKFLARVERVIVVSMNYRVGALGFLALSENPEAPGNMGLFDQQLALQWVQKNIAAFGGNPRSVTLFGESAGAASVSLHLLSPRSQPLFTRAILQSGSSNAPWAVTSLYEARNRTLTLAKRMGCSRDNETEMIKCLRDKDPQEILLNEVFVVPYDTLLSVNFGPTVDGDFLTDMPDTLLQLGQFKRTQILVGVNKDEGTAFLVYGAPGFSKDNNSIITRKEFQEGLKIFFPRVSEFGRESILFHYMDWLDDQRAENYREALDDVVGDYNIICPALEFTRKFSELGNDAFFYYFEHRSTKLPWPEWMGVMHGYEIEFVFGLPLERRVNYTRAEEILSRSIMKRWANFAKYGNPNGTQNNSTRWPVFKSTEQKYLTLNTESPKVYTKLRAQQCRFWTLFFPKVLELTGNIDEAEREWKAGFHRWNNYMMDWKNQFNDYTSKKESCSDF

[3] = Selectivity ratio, ratio of IC50 for electric eel AChE to equine serum BChE
Acetylcholinesterase = Acetylcholinesterase (Electrophorus electricus, UniProt O42275); experiment: Inhibition of electric eel AChE preincubated for 15 mins followed by addition of acetylthiocholine iodide as substrate measured after 30 mins by Ellman's microplate assay
Sequence of Acetylcholinesterase (O42275 whole entry): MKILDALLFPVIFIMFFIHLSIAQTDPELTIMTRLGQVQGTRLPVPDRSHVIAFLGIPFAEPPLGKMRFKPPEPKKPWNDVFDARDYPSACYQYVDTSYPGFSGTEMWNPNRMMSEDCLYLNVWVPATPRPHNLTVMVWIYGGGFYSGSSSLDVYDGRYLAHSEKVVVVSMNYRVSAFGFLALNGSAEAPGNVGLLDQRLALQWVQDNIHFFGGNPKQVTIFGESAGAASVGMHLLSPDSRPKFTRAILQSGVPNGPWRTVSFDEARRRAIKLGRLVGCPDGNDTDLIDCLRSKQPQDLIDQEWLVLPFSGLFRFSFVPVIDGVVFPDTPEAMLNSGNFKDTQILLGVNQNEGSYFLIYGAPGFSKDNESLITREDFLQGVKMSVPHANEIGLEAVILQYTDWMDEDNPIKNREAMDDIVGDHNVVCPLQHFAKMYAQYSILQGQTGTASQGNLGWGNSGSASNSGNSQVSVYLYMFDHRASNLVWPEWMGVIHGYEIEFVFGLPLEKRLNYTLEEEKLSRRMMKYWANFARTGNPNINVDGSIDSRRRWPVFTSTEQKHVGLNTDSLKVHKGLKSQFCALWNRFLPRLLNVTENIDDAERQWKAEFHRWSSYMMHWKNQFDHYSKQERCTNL

Cholinesterase [4] = target: T1, Cholinesterase (Equus caballus, UniProt P81908); experiment: Inhibition of equine serum BChE preincubated for 15 mins followed by addition of S-butyrylthiocholine chloride as substrate measured after 30 mins by Ellman's microplate assay
T1 sequence (P81908 whole entry): as the sequence (P81908 whole entry) above

[5] = Selectivity ratio, ratio of IC50 for equine serum BChE to electric eel AChE
Cholinesterase [6] = target: T1, Cholinesterase; experiment: Mixed-type inhibition of equine serum BChE preincubated for 15 mins followed by addition of S-butyrylthiocholine chloride as substrate measured after 30 mins by Lineweaver-Burk plot analysis

Sequence of Acetylcholinesterase (Electrophorus electricus) (O42275 24-633 limits assumed): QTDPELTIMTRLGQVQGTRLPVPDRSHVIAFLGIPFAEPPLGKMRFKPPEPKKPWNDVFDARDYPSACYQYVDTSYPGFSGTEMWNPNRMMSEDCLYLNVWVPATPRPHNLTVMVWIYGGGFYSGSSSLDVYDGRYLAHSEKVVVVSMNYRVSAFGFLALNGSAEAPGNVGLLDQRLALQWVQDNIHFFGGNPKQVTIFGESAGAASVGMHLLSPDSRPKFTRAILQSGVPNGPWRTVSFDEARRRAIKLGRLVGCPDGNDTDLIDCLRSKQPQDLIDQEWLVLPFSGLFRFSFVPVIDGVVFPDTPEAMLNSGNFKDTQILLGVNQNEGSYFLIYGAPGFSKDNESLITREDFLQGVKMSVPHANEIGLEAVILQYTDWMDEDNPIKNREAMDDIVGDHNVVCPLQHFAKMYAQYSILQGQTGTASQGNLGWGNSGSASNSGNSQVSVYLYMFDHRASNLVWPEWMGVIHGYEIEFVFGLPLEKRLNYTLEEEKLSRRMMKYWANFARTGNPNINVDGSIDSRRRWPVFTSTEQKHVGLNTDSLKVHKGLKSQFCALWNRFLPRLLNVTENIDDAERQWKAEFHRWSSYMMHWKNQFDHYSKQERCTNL

Row | SMILES | inhibition [1] [%] | inhibition [2] [%] | Ratio IC50 [3] | IC50 (Acetylcholinesterase) [µM] | IC50 (Cholinesterase [4]) [µM] | Ratio IC50 [5] | Ki (Cholinesterase [6]) [µM]
1 | COc1cc2c(cc1O)C[C@@H]1NCCc3cc(OC)c(OC)c-2c31 | 17.5 | 22.6 |  |  |  |  | 
2 | COc1cc2c3c(c1OC)-c1cc4c(cc1C[C@@H]3NCC2)OCO4 | 50.4 | 75.8 | 2.18 | 206 | 94.4 | 0.46 | 
3 | COc1cc(CCN(C)C)c2ccc3ccccc3c2c1OC | 2.06 | 83.9 |  |  | 19.3 |  | 
4 | COc1ccc(C[C@H]2c3cc(O)c(OC)cc3CCN2C)cc1O [(S)-RETICULINE] | 53 | 84.1 | 4.63 | 301 | 65 | 0.22 | 
5 | COc1ccc(C2=C(c3ccc(O)cc3)CN3CCC[C@@H]3C2)cc1OC | 51.4 | 59.4 | 1.21 | 202 | 167 | 0.83 | 
6 | COc1c(OC)c(OC)c2c(ccc3ccccc32)c1CCN(C)C | 31.6 | 95.2 |  |  | 3.95 |  | 6.72
7 | COc1cc2c3c(c1O)C1(CCC(O)CC1)CC3NCC2 (stereo not given) | 27.9 | 52.1 |  |  | 288 |  | 
8 | COc1cc2c(cc1O)C[C@H]1c3c(cc(OC)c(OC)c3-2)CCN1C | 38.8 | 51 |  |  | 219 |  | 
9 | COc1cc2c(cc1O)CCN(C)C2Cc1ccc(O)cc1 (stereo not given) | 14.9 | 37.3 |  |  |  |  | 
